{"source": "patent US7638509B2", "about": "“Diene compounds and formulations” (priority 2003, dated 2009)", "key": {"estrogen receptor (ER)": {"system": "estrogen receptor (ER)", "assay": "Steroid hormone specificity, ER/ERE-Luc in PC-3 cells", "type": "cell-based, human", "conditions": "PC-3, ER/ERE-Luc, ADEK at 0.01 mM, 0.1 mM and 1.0 mM, 24 h", "protocol": "(§1) Cell Culture, Transfection, and Reporter Gene Assay. The human prostate cancer cell lines, LNCaP, PC-3, and DU145, and non-prostate cancer cell line COS-1 were maintained in RPMI or Dulbecco's modified Eagle's medium (DMEM) (Life Technologies) supplemented with 10% fetal bovine serum (FBS). Transfections and luciferase (Luc) assays were performed as previously described (Miyamoto, H., Yeh, S., Wilding, G. & Chang, C. (1998) Proc. Natl. Acad. Sci. USA 95, 7379-7384; Miyamoto, H., Rahman, M., Takatera, H., Kang, H.-Y., Yeh, S., Chang, H.-C., Nishimura, K., Fujimoto, N. & Chang, C. (2002) J. Biol. Chem. 277, 4609-4617). Briefly, cells seeded to reach a density of 50-60% confluence in 12 well tissue culture plates were transfected with 1.5 μg of DNA according to “SuperFect transfection” instructions (Qiagen). […] The Luc activity was determined using a Dual-Luciferase Reporter Assay System (Promega) and luminometer.\n(§2) Steroid Hormone Specificity of ADEK. To characterize the steroid hormone activity of ADEK, PC-3 cells were transfected with steroid receptor/reporter (progesterone receptor (PR)/MMTV-Luc, glucocorticoid receptor (GR)/MMTV-Luc, or estrogen receptor (ER)/ERE-Luc) and analyzed for expression of the Luc reporter gene. […] The Luc activity was measured relative to that of ETOH treatment (set as 1-fold). […]"}, "AR": {"target": "T1, AR (Homo sapiens, UniProt P10275)", "T1 construct": "expressed in transfected cells; host or cells: PC-3", "T1 sequence (P10275 1-920)": "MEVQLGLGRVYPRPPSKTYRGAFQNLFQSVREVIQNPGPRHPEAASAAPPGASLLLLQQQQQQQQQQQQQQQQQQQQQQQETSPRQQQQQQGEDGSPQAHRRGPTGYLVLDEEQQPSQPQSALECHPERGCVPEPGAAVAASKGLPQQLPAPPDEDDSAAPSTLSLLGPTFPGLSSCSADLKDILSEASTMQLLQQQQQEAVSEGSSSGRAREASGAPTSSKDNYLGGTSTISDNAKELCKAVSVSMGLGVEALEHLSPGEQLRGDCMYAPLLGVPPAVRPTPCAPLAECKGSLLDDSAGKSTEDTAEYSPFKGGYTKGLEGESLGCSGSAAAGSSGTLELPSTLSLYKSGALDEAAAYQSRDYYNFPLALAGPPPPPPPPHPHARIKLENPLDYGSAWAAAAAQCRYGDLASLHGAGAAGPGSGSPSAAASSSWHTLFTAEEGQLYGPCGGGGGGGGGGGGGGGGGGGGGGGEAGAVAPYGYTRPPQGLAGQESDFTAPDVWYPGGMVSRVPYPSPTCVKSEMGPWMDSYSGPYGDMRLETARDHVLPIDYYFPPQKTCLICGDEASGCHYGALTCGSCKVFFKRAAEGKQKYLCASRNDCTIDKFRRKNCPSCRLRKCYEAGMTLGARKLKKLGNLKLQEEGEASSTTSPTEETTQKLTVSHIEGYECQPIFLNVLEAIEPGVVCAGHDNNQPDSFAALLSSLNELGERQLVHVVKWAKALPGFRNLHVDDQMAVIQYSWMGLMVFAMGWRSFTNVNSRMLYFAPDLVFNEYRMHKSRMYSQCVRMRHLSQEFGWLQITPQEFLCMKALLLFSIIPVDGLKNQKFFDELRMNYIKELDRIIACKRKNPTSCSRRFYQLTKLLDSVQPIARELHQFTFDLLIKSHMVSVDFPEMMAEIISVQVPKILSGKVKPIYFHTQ", "assay": "Steroid hormone specificity, androgenic activity in PC-3 cells", "type": "cell-based", "conditions": "PC-3, ADEK at 0.01 mM, 0.1 mM and 1.0 mM, 24 h", "protocol": "as §1, §2"}, "[1]": {"target": "T2, glucocorticoid receptor (GR) (Homo sapiens, UniProt P04150)", "T2 construct": "expressed in transfected cells; host or cells: PC-3", "T2 sequence (P04150 1-777)": "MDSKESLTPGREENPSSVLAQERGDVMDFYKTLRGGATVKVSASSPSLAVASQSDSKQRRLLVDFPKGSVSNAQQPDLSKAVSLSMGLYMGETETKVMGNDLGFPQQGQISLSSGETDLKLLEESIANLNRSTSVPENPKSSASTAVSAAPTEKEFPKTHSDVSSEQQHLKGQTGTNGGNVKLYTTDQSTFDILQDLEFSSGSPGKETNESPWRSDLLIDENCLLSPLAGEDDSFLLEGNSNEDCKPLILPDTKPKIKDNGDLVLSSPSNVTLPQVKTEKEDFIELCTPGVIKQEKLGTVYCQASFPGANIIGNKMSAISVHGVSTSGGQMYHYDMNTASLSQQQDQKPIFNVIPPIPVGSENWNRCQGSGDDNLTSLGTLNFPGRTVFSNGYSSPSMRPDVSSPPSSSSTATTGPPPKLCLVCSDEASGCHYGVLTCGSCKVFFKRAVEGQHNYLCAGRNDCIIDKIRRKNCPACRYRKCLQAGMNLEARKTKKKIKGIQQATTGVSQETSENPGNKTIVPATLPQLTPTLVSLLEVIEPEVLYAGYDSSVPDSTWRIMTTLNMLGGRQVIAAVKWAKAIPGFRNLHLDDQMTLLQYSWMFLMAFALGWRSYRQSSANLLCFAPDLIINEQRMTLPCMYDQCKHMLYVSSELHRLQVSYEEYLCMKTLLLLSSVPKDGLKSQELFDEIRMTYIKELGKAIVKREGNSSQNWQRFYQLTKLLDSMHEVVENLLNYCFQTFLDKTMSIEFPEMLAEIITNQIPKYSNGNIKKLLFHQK", "assay": "Steroid hormone specificity, GR/MMTV-Luc in PC-3 cells", "type": "cell-based", "conditions": "PC-3, GR/MMTV-Luc, ADEK at 0.01 mM, 0.1 mM and 1.0 mM, 24 h", "protocol": "as §1, §2"}, "wild-type AR": {"target": "T3, wild-type AR (Homo sapiens, UniProt P10275)", "T3 sequence (P10275 1-920)": "T1 sequence (P10275 1-920)", "assay": "Anti-DHT activity on AR transcription, MMTV-Luc reporter in PC-3 cells transfected with AR", "type": "cell-based", "parameters": "expressed in transfected cells; host or cells: PC-3", "conditions": "PC-3, 1 nM DHT, compound at 0.01, 0.1 or 1 μM, dose-dependent", "protocol": "Cell Culture, Transfection, and Reporter Gene Assay. The human prostate cancer cell lines, LNCaP, PC-3, and DU145, and non-prostate cancer cell line COS-1 were maintained in RPMI or Dulbecco's modified Eagle's medium (DMEM) (Life Technologies) supplemented with 10% fetal bovine serum (FBS). Transfections and luciferase (Luc) assays were performed as previously described (Miyamoto, H., Yeh, S., Wilding, G. & Chang, C. (1998) Proc. Natl. Acad. Sci. USA 95, 7379-7384; Miyamoto, H., Rahman, M., Takatera, H., Kang, H.-Y., Yeh, S., Chang, H.-C., Nishimura, K., Fujimoto, N. & Chang, C. (2002) J. Biol. Chem. 277, 4609-4617). Briefly, cells seeded to reach a density of 50-60% confluence in 12 well tissue culture plates were transfected with 1.5 μg of DNA according to “SuperFect transfection” instructions (Qiagen). After 2-3 h incubation, cells were treated with medium supplemented with charcoal-stripped FBS containing either ethanol or ligands for 24 h. The cells were then harvested and whole cell extracts were used for Luc assay. The Luc activity was determined using a Dual-Luciferase Reporter Assay System (Promega) and luminometer.\nTo accomplish these studies, PC-3 cells were transfected with the wild-type AR expression plasmid pSG5-AR and MMTV-Luc. […] The Luc activity was measured relative to that of ethanol treatment (set as 1-fold). Values from the mean±SD of at least three determinations were used. PC-3 cells were transfected with the pSG5-AR and MMTV-Luc. […] Values from the mean±SD of at least three determinations were obtained."}}, "data": [{"molecule": "CC(=O)O[C@H]1C=C[C@@]2(C)C(=CC[C@@H]3[C@@H]2CC[C@@]2(C)[C@H]3CCC23OCCO3)C1", "note": "[ADEK, 3β-acetoxy-17,17-ethylenedioxyandrosta-1,5-diene]", "values": [{"measurement": "melting point", "value": "105 to 106", "unit": "°C"}, {"measurement": "estrogenic activity (in words)", "setting": "estrogen receptor (ER)", "value": "some estrogenic activity"}, {"measurement": "androgenic activity (in words)", "setting": "AR", "value": "no significant"}, {"measurement": "glucocorticoid activity (in words)", "setting": "[1]", "value": "no significant"}, {"measurement": "DHT-induced AR transactivation suppressed to (Luc activity relative to DHT = 100%)", "setting": "wild-type AR", "value": 30, "unit": "%"}]}]}
